According to US20050261129A1, “Method of protecting plants from bacterial and fungal diseases” (priority 2003, published 2005):

Each compound was assayed on tomato seedlings (assay: Tomato SAR trial, greenhouse foliar vigour (phytotoxicity) ratings (Example 9)). Details: 0, severe foliar injury; 10, foliage green in excellent health; each treatment followed by BONZI 5 ppm.
Method: Tomatoes were seeded in a green house and the SAR compositions applied three separate times, first as a drench nine days after seeding, the second at the 2-leaf stage 15 days after seeding, and finally as a foliar application in the filed approximately two months from seeding. Each treatment was followed up by a 5 ppm application of a plant growth regulator comprising paclobutrazol available under the name BONZI from Syngenta, Greensboro, N.C. […] This procedure was replicated four times in a randomized complete block design. […] Phytotoxicity ratings were also taken in green house prior to transplanting.

Structure (SMILES) | Greenhouse Evaluations: Foliar Vigour Ratings (0-10)
CC1(C)CC[C@]2(C(=O)O)CC[C@]3(C)C(=CC[C@@H]4[C@@]5(C)CC[C@H](O)C(C)(C)[C@@H]5CC[C@]43C)[C@@H]2C1 [Sapogenin 6, Oleanolic acid] | 4.3
CC1(C)CC[C@]2(C(=O)O)CC[C@]3(C)C(=CC[C@@H]4[C@@]5(C)CC[C@H](O)[C@@](C)(CO)[C@@H]5CC[C@]43C)[C@@H]2C1 [Sapogenin 5, Hederagenin] | 4.3
COC(=O)[C@@]1(C)CC[C@]2(C(=O)O)CC[C@]3(C)C(=CCC4[C@@]5(C)CCC(O)[C@@](C)(CO)C5CC[C@]43C)C2C1 (stereo partly drawn) [Sapogenin 4, Phytolaccagenic acid] | 4.3
CC1(C)CC[C@]2(C(=O)O)CC[C@]3(C)C(=CC[C@@H]4[C@@]5(C)CC[C@H](O)C(C)(C)[C@@H]5CC[C@]43C)[C@@H]2C1 [Sapogenin 3, Oleanolic acid] | 4.7
CC1(C)CC[C@]2(C(=O)O)CC[C@]3(C)C(=CC[C@@H]4[C@@]5(C)CC[C@H](O)[C@@](C)(CO)[C@@H]5CC[C@]43C)[C@@H]2C1 [Sapogenin 2, Hederagenin] | 5.3
COC(=O)[C@@]1(C)CC[C@]2(C(=O)O)CC[C@]3(C)C(=CCC4[C@@]5(C)CCC(O)[C@@](C)(CO)C5CC[C@]43C)C2C1 (stereo partly drawn) [Sapogenin 1, Phytolaccagenic acid] | 5.7
